Columns and labels:
[1] = tested on: human bone marrow-derived mesenchymal stem cells (hBMSCs); experiment: Cell viability by CCK-8 analysis, hBMSCs; assay type: cell-based; settings: FIG. 1; for influence on cell viability: all the concentrations (50, 100, 200, 400 μM); for cell viability: concentration of 100 μM
Protocol: (§1) In Example 2, influence of a sialyloligosaccharide on cell viability of stem cells was to be confirmed. Particularly, 3′-sialyllactose, 6′-sialyllactose, and a combination thereof were each treated on the subcultured stem cells in a concentration of 0, 50, 100, 200, or 400 μM, and the cell viability per concentration was verified by cell counting kit-8 (CCK-8) analysis. In particular, of hBMSCs, hATMSCs, and hCBMSCs were seeded in a 96-well plate. Then, the stem cells were treated with 3′-sialyllactose (GeneChem), 6′-sialyllactose (GeneChem), and a mixture of 3′-sialyllactose and 6′-sialyllactose in a concentration of 0, 50, 100, 200, or 400 μM and cultured in a DMEM low glucose medium (HyClone) including 1% antibiotics free of fetal bovine serum (T&I). Next, the viabilities of the cultured cells were confirmed by CCK-8 (Dojindo Laboratories, Kumamoto, Japan) analysis.

[2] = tested on: human cord blood-derived mesenchymal stem cells (hCBMSCs); experiment: Cell viability by CCK-8 analysis, hCBMSCs; assay type: cell-based; settings: FIG. 3; for influence on cell viability: all the concentrations (50, 100, 200, 400 μM); for cell viability: concentration of 100 μM
Protocol: as §1

[3] = tested on: human adipose tissue-derived mesenchymal stem cells (hATMSCs); experiment: Cell viability by CCK-8 analysis, hATMSCs; assay type: cell-based; settings: FIG. 2; for influence on cell viability: all the concentrations (50, 100, 200, 400 μM); for cell viability: concentration of 100 μM
Protocol: as §1

hBMSCs [4] = experiment: Stemness markers OCT4, SOX2, NANOG by qRT-PCR and western blot, hBMSCs; assay type: cell-based, human; settings: 100 μM, compared to stem cells cultured without a sialyllactose, FIG. 4
Description: (§2) In Example 1, human bone marrow-derived mesenchymal stem cells (hBMSCs), human adipose tissue-derived mesenchymal stem cells (hATMSCs), human cord blood-derived mesenchymal stem cells (hCBMSCs), and induced pluripotent stem cells-derived hepatic organoid were used in this experiment. Dulbecco's Modified Eagle's Mediums (DMEM Low Glucose, available from HyClone in Logan, Utah, USA) including 10% fetal bovine serum (available from T&I in Gangwon, Korea), 1% antibiotics (penicillin/streptomycin, available from Gibco in Grand Island, NY, USA) were used as culture mediums of hBMSCs, hATMSCs, and hCBMSCs. After treating 3′-sialyllactose (available from GeneChem), 6′-sialyllactose (available from GeneChem), and a mixture of 3′-sialyllactose and 6′-sialyllactose, each in an amount of 100 μM, the culturing solutions were replaced every 3 days. The negative control was performed in the same manner after adding triple distilled water into the culturing solution. Also, a Hepatocyte Culture Medium (available from Lonza) including an endothelial cell growth medium-2 (available from Lonza), 2.5% FBS, 100 nM dexamethasone (available from Sigma-Aldrich), 20 ng/ml OSM (available from R&D system), and 10 ng/ml HGF (available from PeproTech) was used as the culturing solution of hepatic organoid, and the culturing solution was replaced every 3 days.
(§3) In Example 3, influence of a sialyloligosaccharide on stemness of stem cells was to be confirmed. Particularly, after treating mesenchymal stem cells with each of 3′-sialyllactose, 6′-sialyllactose, and a combination thereof, mRNAs of OCT4, SOX2, and NANOG, which are stem cell markers of the mesenchymal stem cells, and changes in expression at protein levels were each measured by quantitative real-time reverse transcription-polymerase chain reaction (qRT-PCR) and western blot. In particular, total RNAs were isolated from the cells collected after culturing the cells in the same manner as in Example 1, and change in mRNA expression of the isolated total RNAs was confirmed by qRT-PCR using OCT4 primers available from Bioneer (Daejeon, Korea), SOX2 primers available from Bioneer (P200205), and NANOG primers.

[5] = tested on: induced pluripotent stem cells-derived hepatic organoids; experiment: Metabolic maturity of hepatic organoids, mRNA expression ratios by qRT-PCR; assay type: cell-based; settings: 6 days; for ratios of ALB/AFP: FIG. 12
Description: as §2
In Example 8, influence of a sialyloligosaccharide on maturity of induced pluripotent stem cells-derived hepatic organoids was to be confirmed. Particularly, after subculturing the hepatic organoids, the organoids were stabilized in a hepatic medium (HM) for a day and treated with 3′-sialyllactose and 6′-sialyllactose in concentrations of 0, 0.1, 1, 10, and 100 μM for 6 days, and then total RNAs were isolated from the hepatic organoids on the 7th day. The changes in expressions at mRNA level of CYP3A4, CYP2A7, ALB, and AFP, which are markers of metabolic maturity, were each measured by qRT-PCR, and the expression ratios were compared to confirm the metabolic maturity.

hATMSCs = experiment: Stemness markers OCT4, SOX2, NANOG by qRT-PCR and western blot, hATMSCs; assay type: cell-based, human; settings: 100 μM, compared to stem cells cultured without a sialyllactose, FIG. 5
Description: as §2, §3

[6] = tested on: induced pluripotent stem cells-derived hepatic organoids; experiment: Cell viability of hepatic organoids by CCK analysis; assay type: cell-based; settings: concentrations of 0.1, 1, 10, and 100 μM for 6 days, 7th day, FIG. 10
Description: (§4) In Example 1, human bone marrow-derived mesenchymal stem cells (hBMSCs), human adipose tissue-derived mesenchymal stem cells (hATMSCs), human cord blood-derived mesenchymal stem cells (hCBMSCs), and induced pluripotent stem cells-derived hepatic organoid were used in this experiment. Dulbecco's Modified Eagle's Mediums (DMEM Low Glucose, available from HyClone in Logan, Utah, USA) including 10% fetal bovine serum (available from T&I in Gangwon, Korea), 1% antibiotics (penicillin/streptomycin, available from Gibco in Grand Island, NY, USA) were used as culture mediums of hBMSCs, hATMSCs, and hCBMSCs. After treating 3′-sialyllactose (available from GeneChem), 6′-sialyllactose (available from GeneChem), and a mixture of 3′-sialyllactose and 6′-sialyllactose, each in an amount of 100 μM, the culturing solutions were replaced every 3 days. The negative control was performed in the same manner after adding triple distilled water into the culturing solution. Also, a Hepatocyte Culture Medium (available from Lonza) including an endothelial cell growth medium-2 (available from Lonza), 2.5% FBS, 100 nM dexamethasone (available from Sigma-Aldrich), 20 ng/ml OSM (available from R&D system), and 10 ng/ml HGF (available from PeproTech) was used as the culturing solution of hepatic organoid, and the culturing solution was replaced every 3 days. […]

hCBMSCs = experiment: Stemness markers OCT4, SOX2, NANOG by qRT-PCR and western blot, hCBMSCs; assay type: cell-based, human; settings: 100 μM, compared to stem cells cultured without a sialyllactose, FIG. 6
Description: as §2, §3

hBMSCs [7] = experiment: Proliferation genes CCNA2 and CDK2 expression by qRT-PCR; assay type: cell-based, human; settings: hBMSCs having low proliferation ability, 100 μM, mRNA, FIG. 8
Description: as §4

hBMSCs [8] = experiment: Senescence-associated beta-galactosidase (SA-β-gal) staining; assay type: cell-based, human; settings: hBMSCs of 10 passages, 100 μM, versus without treatment, FIG. 7C
Protocol: Also, in order to confirm a degree of senescence of the stem cells after being treated with 3′-sialyllactose (GeneChem), senescence-associated beta-galactosidase staining was performed on hBMSCs of 10 passages, treated with 100 μM of 3′-sialyllactose. In particular, after fixing the cells in formalin, the resultant washed with PBS, and 1 mg/mL of a β-gal staining solution X-Gal, 40 mM of a citric acid-sodium phosphate buffer solution, 150 mM of NaCl, 2 mM of MgCl2, 5 mM of potassium ferrocyanide, and 5 mM of potassium ferricyanide (pH 6.0, available from Sigma-Aldrich, St. Louis, USA) were add to the resultant and reacted at 37° C. Then, degrees of senescence activity of the aged cells (blue, positive) and cells not showing activity of senescence (negative) were confirmed using Eclipse TS100 (available from Nikon USA, Melville, N.Y., USA).

hBMSCs [9] = experiment: Cell viability per subculturing passage by CCK-8; assay type: cell-based, human; settings: hBMSCs subcultured for 4, 7, 10, and 12 passages, 100 μM, FIG. 9
Protocol: In Example 6, influence of a sialyloligosaccharide on viability of stem cells according to cell subculturing passages was to be confirmed. Particularly, hBMSCs subcultured for 4, 7, 10, and 12 passages were treated with 3′-sialyllactose in a concentration of 100 μM, and the cell viability was confirmed by cell counting kit-8 assay (CCK-8) analysis. In particular, the hBMSCs were seeded in a 96-well plate. Then, the stem cells were treated with 3′-sialyllactose (GeneChem) in a concentration of 100 μM and cultured in a DMEM low glucose medium (HyClone) including 1% antibiotics free of fetal bovine serum (T&I). Viabilities of the cultured cells were confirmed by the CCK-8 analysis.

hBMSCs [10] = experiment: Cell senescence factors p16 and p53 by qRT-PCR and Western Blot after subculturing; assay type: cell-based, human; settings: hBMSCs subcultured, 100 μM, versus without treatment, FIG. 7
Description: as §4, with “solution.” for “solution. Also, a Hepatocyte Culture Medium (available from Lonza) including an endothelial cell growth medium-2 (available from Lonza), 2.5% FBS, 100 nM dexamethasone (available from Sigma-Aldrich), 20 ng/ml OSM (available from R&D system), and 10 ng/ml HGF (available from PeproTech) was used as the culturing solution of hepatic organoid, and the culturing solution was replaced every 3 days.”
In Example 4, influence of a sialyloligosaccharide on senescence of stem cells was to be confirmed. Particularly, after treating the hBMSC stem cells with 3′-sialyllactose, changes in expression at mRNA and protein levels of p16 and p53, which are cell senescence factors after subculturing were each measured by qRT-PCT and Western Blot. […]

CC(=O)N[C@H]1[C@H]([C@H](O)[C@H](O)CO)O[C@@](OC[C@H]2O[C@@H](O[C@H]3[C@H](O)[C@@H](O)[C@H](O)O[C@@H]3CO)[C@H](O)[C@@H](O)[C@H]2O)(C(=O)O)C[C@@H]1O [6′-sialyllactose]
influence on cell viability [1]: did not negatively influence the cell viability
cell viability [1]: increased significantly
influence on cell viability [2]: did not negatively influence the cell viability
cell viability [2]: increased significantly
influence on cell viability [3]: did not negatively influence the cell viability
cell viability [3]: increased significantly
expression at mRNA and protein levels of NANOG (hBMSCs [4]): significantly increased
expression at mRNA and protein levels of OCT4 (hBMSCs [4]): significantly increased
expression at mRNA and protein levels of SOX2 (hBMSCs [4]): significantly increased
ratios of ALB/AFP ([5]; concentrations of 0.1 and 100 μM): significantly increased
expression at mRNA and protein levels of NANOG (hATMSCs): significantly increased
expression at mRNA and protein levels of OCT4 (hATMSCs): significantly increased
expression at mRNA and protein levels of SOX2 (hATMSCs): significantly increased
cell viability of hepatic organoids [6]: significantly increased
expression at mRNA and protein levels of NANOG (hCBMSCs): significantly increased
expression at mRNA and protein levels of OCT4 (hCBMSCs): significantly increased
expression at mRNA and protein levels of SOX2 (hCBMSCs): significantly increased

CC(=O)N[C@H]1[C@H]([C@H](O)[C@H](O)CO)O[C@@](O[C@H]2[C@@H](O)[C@@H](CO)O[C@@H](O[C@H]3[C@H](O)[C@@H](O)C(O)O[C@@H]3CO)[C@@H]2O)(C(=O)O)C[C@@H]1O (some centres unmarked) [3′-sialyllactose]
expression of CCNA2 (hBMSCs [7]): significantly increased
expression of CDK2 (hBMSCs [7]): significantly increased
influence on cell viability [1]: did not negatively influence the cell viability
cell viability [1]: increased significantly
influence on cell viability [2]: did not negatively influence the cell viability
cell viability [2]: increased significantly
influence on cell viability [3]: did not negatively influence the cell viability
cell viability [3]: increased significantly
SA-β-gal activity (hBMSCs [8]): low SA-β-gal activity
expression at mRNA and protein levels of NANOG (hBMSCs [4]): significantly increased
expression at mRNA and protein levels of OCT4 (hBMSCs [4]): significantly increased
expression at mRNA and protein levels of SOX2 (hBMSCs [4]): significantly increased
cell viability (hBMSCs [9]): significantly increased
ratios of ALB/AFP ([5]; concentrations of 1, 10, and 100 μM): significantly increased
ratios of CYP3A4/CYP3A7 ([5]; concentrations of 1 and 10 μM, FIG. 11): significantly increased
expression at mRNA and protein levels of p16 (hBMSCs [10]): very low expression
expression at mRNA and protein levels of p53 (hBMSCs [10]): very low expression
expression at mRNA and protein levels of NANOG (hATMSCs): significantly increased
expression at mRNA and protein levels of OCT4 (hATMSCs): significantly increased
expression at mRNA and protein levels of SOX2 (hATMSCs): significantly increased
cell viability of hepatic organoids [6]: significantly increased
expression at mRNA and protein levels of NANOG (hCBMSCs): significantly increased
expression at mRNA and protein levels of OCT4 (hCBMSCs): significantly increased
expression at mRNA and protein levels of SOX2 (hCBMSCs): significantly increased

— patent publication US20230270788A1, “COMPOSITION FOR AUGMENTING STEMNESS AND USE THEREOF” (GENECHEM INC., priority 2019, published 2023)
